Measurements: patent US10730857B2, “Benzocyanine compounds” (Pierce Biotechnology, Inc., priority 2011, dated 2020)
Entries after “also recorded” stand apart in the source; their conditions may differ.

Columns and labels:
[1] = In vivo imaging with dye-labeled anti-CEA antibody; set-up: species or system nu/nu mice; conditions: dye conjugated to mouse anti-CEA antibody; i.v.; predicted results
Procedure: The inventive compounds are used for in vivo imaging as described in J. Gastrointest Surg (2008) 12:1938-1950. Briefly, human pancreatic cell lines are maintained in media supplemented with penicillin/streptomycin at 37° C. with 5% CO2. Mouse anti-CEA antibody and Control Mouse IgG (in PBS with 0.20% sodium azide) are conjugated to V08-15173. The dye is reconstituted at 10 mg/ml in DMF and then added to the antibody at a 10 molar excess. The reaction is carried out for one hour at room temperature. The samples are then dialyzed against 3×2 L of PBS. The cell lines are plated in 96-well plates at 5×10^4 cells per well. After 48 hours culture in appropriate media, the cells are incubated with 1 μg of V08-15173 labeled anti-CEA antibody or V08-15173-labeled control mouse IgG for four hours at 37° C. The cells are then washed three times with PBS and then imaged with an inverted Nikon De-485 microscope and Spot camera RD.
Surgical procedures and intravital imaging are performed with the animals anesthesized by intramuscular injection of 0.02 ml of 50% ketamine, 38% xylazine and 12 acepromazine maleate. Human pancreatic and colorectal cancer cell lines are harvested by trypsinization and washed twice with serum free medium […]. Cells (1×10^6 in 100 μl of serum-free media) are injected subcutaneously within 30 minutes of harvesting over the right flank in female nu/nu mice between 4-6 weeks of age. Subcutaneous tumors are allowed to grow for 7-14 days until they reached diameter of 1-2 mm prior to the delivery of conjugated antibody. For ASPC-1 implants, the cells are harvested by trypsinization and washed 3× in serum-free media. […]. The cells are resuspended in serum-free media at 5×10^6/ml. A volume of 200 μl of the cell suspension is then injected directly into the peritoneal cavity within 30 minutes of harvesting.
For antibody delivery, one to two weeks after subcutaneous, orthotopic, or intraperitoneal tumor implantation, animals are given intravenous (i.v.) injection of either conjugated anti-CEA or conjugated control IgG antibody diluted in PBS to a final volume of 100 μl. All i.v. injections are done via the tail vein. For the dose-response experiment, the antibody dose is 75 μg. For the in vivo time course, the animals are anesthesized and imaged at 30 min, 1, 2, 6, 24 hours and 8 and 15 days after systemic antibody delivery.
The inventive compounds are used for in vivo imaging as described in J. Gastrointest Surg (2008) 12:1938-1950. Briefly, human pancreatic cell lines are maintained in media supplemented with penicillin/streptomycin at 37° C. with 5% CO2. Mouse anti-CEA antibody and Control Mouse IgG (in PBS with 0.20% sodium azide) are conjugated to 779 Compound 1. […]

lamin A in U20S cells = test: Immunofluorescence detection of lamin A in U20S cells (FIG. 20A-C and repeat); type: cell-based; conditions: for S/B 2.5 X: 2.5 X molar excess
Procedure: In the indicated experiments, the inventive compounds and commercial dye were evaluated for immunofluorescence in a cell based assay using the following protocol. Frozen U20S cell plates which were stored at −80° C. were thawed for 45 minutes at 50° C. Storage buffer (PBS) was removed and the cells were permeabilized for 15 minutes with 0.1% Triton-X100 in 1×PBS buffer (100 μl/well). The cell plate was blocked for 60 minutes in 2% BSA/PBS-0.1% Triton-X100. Primary antibody, either rat anti-Grp94 (5 μg/ml), mouse anti-lamin A (10 μg/ml), or rabbit anti-lamin B1 (10 μg/ml), diluted in 2% BSA/PBS-0.1% Triton-X100 was added to the plate and incubated for 1 hour at room temperature. Control wells contained only 2% BSA/PBS-0.1% Triton-X100 blocker. After incubation, the antibody solution was removed from the plate and the plate was washed three times with 100 μl/well of PBS-0.5% Tween-20 and one time with 100 μl/well PBS. GARat, GAM, or GAR secondary antibodies labeled with various molar excess of the inventive or commercial compound were diluted to 4 μg/ml in PBS and incubated for 1 hour at room temperature. The plates were washed three times with 100 μl/well of PBST and once with 100 μl/well PBS, and Hoechst (diluted to 0.1 μg/ml in PBS) was added to each well (100 μl/well). The plates were scanned on ArrayScan Plate Reader or ToxInsight Instrument.

[2] = Absorbance/emission spectral properties and fluorescence intensity of the dyes; type: physicochemical; conditions: second property table of Example 6; NHS ester forms
Procedure: Emission/excitation profiles for inventive and commercial compounds was determined by reconstituting the compounds in DMF at 10 mg/ml and then diluting in PBS buffer pH 7.2 to 10 μg/ml.

[3] = tested on: rabbit IgG immunoglobulin; test: Plate functional assay of dye-GAR conjugates; type: binding; conditions: FIG. 14 summary Raw Fluorescence Intensity
Procedure: Performance of the dye-GAM conjugates, dye-GAR conjugates, and dye-SA conjugates was evaluated in a functional assay. Wells of a 96 white opaque plate or black clear-bottom plate were coated with target proteins mouse IgG immunoglobulin, rabbit IgG immunoglobulin, or biotinylated bovine serum albumin (BBSA). One hundred μl mouse or rabbit IgG, or BBSA at a concentration of 10 μg/ml was applied to the corresponding wells in columns 1 and 2. The target proteins were serially diluted 1:1 from the wells in columns 2 to 11 using 100 μl PBS. One hundred μl of the samples from the wells in column 11 were discarded. One hundred μl PBS was added to the wells in column 12. The plates were incubated overnight at 4° C. and then blocked 2×200 μl with Thermo Scientific SuperBlock® Blocking Buffer. The coated plates were washed 2×200 μl with PBS-Tween and 1×200 μl with PBS. Based on the calculated concentrations, conjugates were diluted 1:250 in PBS, added to the corresponding plates (100 μl/well) and then incubated for one hour in the dark. The plates were washed with 2×200 μl with PBS-Tween and 1×200 μl with PBS and filled with PBS buffer (100 μl/well) prior to scanning the white opaque plates on Tecan Safire using 679 nmexcitation/702 nmemission or scanning the black clear-bottom plates on LiCor Odyssey at 700 channel, to detect fluorescence intensity.

Em [2]: 706 nm | Ex [2]: 684 nm
Structure (SMILES): COCCOCCOCCOCC[N+]1=C(/C=C/C=C/C=C2/N(CCOCCOCCOCCOCCC(=O)ON3C(=O)CCC3=O)c3ccc4c(S(=O)(=O)[O-])cc(S(=O)(=O)O)cc4c3C2(C)CCOCCOCCOCCOC)C(C)(CCOCCOCCOCCOC)c2c1ccc1c(S(=O)(=O)O)cc(S(=O)(=O)O)cc21 (stereo not shown) [Compound V08-15173]
Ex vivo analysis of the vital organs [1]: presence of dye predominantly in the liver with some signal detected in the spleen intestines and lungs | post-experiment surgical exposure: accumulation of dye [1]: accumulation of dye in the liver, bladder, and a region of inflammation in the subcutaneous tissue | S/B 2.5 X (lamin A in U20S cells; GAM conjugate): 2.9 | S/B 5.0 X (lamin A in U20S cells; GAM conjugate, 5.0 X molar excess): 4.9 | S/B 7.5 X (lamin A in U20S cells; GAM conjugate, 7.5 X molar excess): 6.0 | S/B 10 X (lamin A in U20S cells; GAM conjugate, 10 X molar excess): 4.9 | S/B 15 X (lamin A in U20S cells; GAM conjugate, 15 X molar excess): 4.6 | non-specific binding / specificity (in words) (lamin A in U20S cells; GAM conjugates, FIG. 20A-C): a minimal amount of non-specific binding; also recorded: little non-specific binding | Mean Total Intensity, Negative control, 7.5 X (lamin A in U20S cells; no primary antibody, 7.5 X molar excess): 7100 | S/B 2.5 X (lamin A in U20S cells; repeat experiment): 9.8 | quenching at 1000 ng/well at 25× (in words) [3]: no apparent quenching
